According to publication PMC12040169 (PLOS Biology, 2025):

Experiment: in vitro
Conditions: human, hela cells, % viability

## Cc1nc(C2CCCCN2C(=O)C2CCCCC2)ncc1C(=O)NCc1ccc(F)cc1 (stereo not drawn) [CBK285554]
  viability at 28.5 h, 10 µM: 86.5%

## CNC(=O)NC(=O)C1CCN(CCOc2ccccc2)CC1 [CBK034959]
  viability at 28.5 h, 10 µM: 94.7%

## O=C(Nc1ccc(-c2ccccc2C(F)(F)F)s1)C(F)(F)F [CBK099942]
  viability at 28.5 h, 10 µM: 96.3%

## O=C(Nc1cccnc1)c1cc(-c2ccc(Cl)cc2)on1 [CBK116555]
  viability at 28.5 h, 10 µM: 92.8%

## CN1C(/C=N/O)=C(O)c2ccccc2S1(=O)=O [CBK010098]
  viability at 28.5 h, 10 µM: 94.1%

## COc1cc(C=O)ccc1Oc1nnnn1-c1ccc(C(=O)O)cc1 [CBK267071]
  viability at 28.5 h, 10 µM: 95.5%

## O=C(O)C1CCCN(C(=O)NCc2cccc(C(F)(F)F)c2)C1 (stereo not drawn) [CBK161345]
  viability at 28.5 h, 10 µM: 94.5%

## O=C1CC(c2ccco2)Cc2c1cnn2-c1nc2ccccc2s1 (stereo not drawn) [CBK269292]
  viability at 28.5 h, 10 µM: 81.4%

## CS(=O)(=O)c1ccc(C(=O)N(Cc2ccccc2)c2ccc(S(=O)(=O)N3CCOC3=O)cc2)cc1 [CBK024590]
  viability at 28.5 h, 10 µM: 110%

## Cc1ccc(S(=O)(=O)N[C@H]2CO[C@H]3[C@@H]2OC[C@@H]3n2nnnc2Oc2ccccc2)cc1 [CBK289485]
  viability at 28.5 h, 10 µM: 82.4%

## Nc1cc(S(=O)(=O)O)c2cccnc2c1O [CBK278176]
  viability at 28.5 h, 10 µM: 75.4%

## Cc1ccc(-c2ncc(OCc3ccccc3)nc2N)c(C)c1 [CBK145129]
  viability at 28.5 h, 10 µM: 90.6%

## COc1ccccc1C(NC(=O)C1CCN(CCn2cnc3c2c(=O)n(C)c(=O)n3C)CC1)c1ccccn1 (stereo not drawn) [CBK147939]
  viability at 28.5 h, 10 µM: 91.7%

## O=C1CC(Cc2ccccc2)C(=O)N1CCCn1ccnc1 (stereo not drawn) [CBK265123G]
  viability at 28.5 h, 10 µM: 97.4%

## COc1ccccc1CN(C)C(C)C(=O)Nc1ccc(S(N)(=O)=O)cc1 (stereo not drawn) [CBK305839]
  viability at 28.5 h, 10 µM: 90.1%

## CC(=O)Nc1cc(C)c(C)cc1NC(C)=O [CBK025366]
  viability at 28.5 h, 10 µM: 97.5%

## CN(C)c1ccc(CC(=O)NC2Cc3ccccc3C2)cc1 [CBK200360]
  viability at 28.5 h, 10 µM: 105%

## Fc1ccccc1CN(CCCn1ccnc1)Cc1ccncc1 [CBK282981]
  viability at 28.5 h, 10 µM: 102%

## CCCCOC(=O)c1ccc(N2C(=O)CC(N3CCN(c4ccc(F)cc4)CC3)C2=O)cc1 (stereo not drawn) [CBK265527]
  viability at 28.5 h, 10 µM: 94.6%

## COc1ccccc1OCCOc1cccc(/C=N/n2cnnc2)c1 [CBK263288]
  viability at 28.5 h, 10 µM: 94.7%

## c1cncc(-c2nc(NCCN3CCOCC3)c3ccccc3n2)c1 [CBK264566C]
  viability at 28.5 h, 10 µM: 91%

## CCOc1cc(NC2CCN(C(=O)C3CCCCC3(C)C)CC2)ncn1 (stereo not drawn) [CBK305505]
  viability at 28.5 h, 10 µM: 105%

## CN(C)CCCNC(=O)C1CCCN(c2nc3c(-c4ccccc4)csc3c(=O)[nH]2)C1 (stereo not drawn) [CBK215504]
  viability at 28.5 h, 10 µM: 94.6%

## Cc1cc(C)cc(NC(=O)CSc2ncnc3c2oc2ccccc23)c1 [CBK287394]
  viability at 28.5 h, 10 µM: 90.5%

## COC(=O)COc1ccc(NC(=O)c2ccc([N+](=O)[O-])c(C)c2)cc1 [CBK268338]
  viability at 28.5 h, 10 µM: 103%

## CCc1nnc(SCc2ccc(CSc3nnc(CC)n3N)cc2)n1N [CBK265689]
  viability at 28.5 h, 10 µM: 106%

## O=C1NC(=S)NC(=O)C1=Cc1ccc(-c2ccc([N+](=O)[O-])cc2Cl)o1 [CBK261820]
Bulk resorufin, single well
  viability at 28.5 h, 10 µM: 89.2%

## O=C(Cc1ccccc1)N1CCN(C(=O)c2ccco2)CC1 [CBK068325]
  viability at 28.5 h, 10 µM: 93.4%

## O=C1C2(c3ccccc3)CN(CCCO)CC1(c1ccccc1)CN(CCCO)C2 [CBK265912]
  viability at 28.5 h, 10 µM: 109%

## COc1cc(=O)n(C)c(C)n1 [CBK007924]
  viability at 28.5 h, 10 µM: 91%

## N#C/C(=C\c1cn(CCC(N)=O)c2ccccc12)c1nc2ccccc2[nH]1 [CBK267966]
  viability at 28.5 h, 10 µM: 104%

## FC(F)(F)c1ccc(N2CCNCC2)nc1OCc1ccc2c(c1)OCCO2 [CBK003994A]
  viability at 28.5 h, 10 µM: 113%

## Cn1cc(NC(=O)C2CCCN(c3ncccn3)C2)cn1 (stereo not drawn) [CBK304394]
  viability at 28.5 h, 10 µM: 108%

## CCN(Cc1ccc(C#N)cc1F)C(=O)Nc1cnn(CCOC)c1 [CBK305697]
  viability at 28.5 h, 10 µM: 91.9%

## CCc1c(C)sc(NC(=S)Nc2cnccn2)c1C(=O)OC [CBK267088]
  viability at 28.5 h, 10 µM: 96.5%

## CC(C)(O)c1cc(CC2(NCc3ccco3)COC2)no1 [CBK289255]
  viability at 28.5 h, 10 µM: 92.6%
